Measured values reported in patent US20220233549A1, “METHOD FOR ALPHAVIRUS INHIBITION” (priority 2019, published 2022).

Experiments:
Type in all cases: cell-based
Influenza = test: Activity of Example 1 against non-alphaviruses: Influenza
CHIKV 181/clone25 = test: CHIKV cytopathic effect (CPE) protection assay in Vero cells; conditions: Chikungunya virus; CHIKV 181/clone25, Vero cells, MOI=0.01, 48 hrs, protection from CPE (crystal violet, absorbance 595nm)
VEEV (ZPC) = test: microbe, parasite or virus in culture; conditions: Venezuelan equine encephalitis virus
Vaccinia = test: Activity of Example 1 against non-alphaviruses: Vaccinia; conditions: Orthopoxvirus vaccinia
BK Polyomavirus = test: Activity of Example 1 against non-alphaviruses: BK Polyomavirus; conditions: Betapolyomavirus hominis
Dengue = test: Activity of Example 1 against non-alphaviruses: Dengue; conditions: Dengue virus
MAYV = test: Activity of Example 1 against other alphaviruses: MAYV
ONNV (SG-650) = test: Activity of Example 1 against other alphaviruses: ONNV
SINV (TR-339) = test: organism not typed

CN1C(=O)C(CC(=O)NCC2CCCCC2)Sc2ncccc21 (stereo not shown) [Example 1, N-(cyclohexylmethyl)-2-(1-methyl-2-oxo-2,3-dihydro-1H-pyrido[2,3-b][1,4]thiazin-3-yl)acetamide]
EC50 (Influenza): > 100 µM
EC50 (CHIKV 181/clone25): < 10 µM
EC50 (VEEV (ZPC)): < 10 µM
EC50 (Vaccinia): > 100 µM
EC50 (BK Polyomavirus): > 100 µM
EC50 (Dengue): > 100 µM
EC50 (MAYV): 10 to 49.9 µM
EC50 (ONNV (SG-650)): < 10 µM
EC50 (SINV (TR-339)): > 100 µM

O=C(CC1Cc2ncccc2NC1=O)NCC1(F)CCCCC1 (stereo not shown) [Example 89, N-((1-fluorocyclohexyl)methyl)-2-(2-oxo-1,2,3,4-tetrahydro-1,5-naphthyridin-3-yl)acetamide]
EC50 (CHIKV 181/clone25): 10 to 49.9 µM

O=C(CC1Cc2ncccc2NC1=O)NCc1ccc(F)cc1 (stereo not shown) [Example 90, N-(4-fluorobenzyl)-2-(2-oxo-1,2,3,4-tetrahydro-1,5-naphthyridin-3-yl)acetamide]
EC50 (CHIKV 181/clone25): 10 to 49.9 µM

O=C(CC1Oc2ncccc2NC1=O)NCC1CCCCC1 (stereo not shown) [Example 91, N-(cyclohexylmethyl)-2-(2-oxo-2,3-dihydro-1H-pyrido[2,3-b][1,4]oxazin-3-yl)acetamide]
EC50 (CHIKV 181/clone25): 10 to 49.9 µM

O=C(CC1CNc2cccnc2S1)NCC1CCCCC1 (stereo not shown) [Example 92, N-(cyclohexylmethyl)-2-(2,3-dihydro-1H-pyrido[2,3-b][1,4]thiazin-3-yl)acetamide]
EC50 (CHIKV 181/clone25): 10 to 49.9 µM
